Assays:
[1] = system: adjuvant-induced arthritis; assay: Rat adjuvant-induced arthritis model; assay type: in vivo, male Lewis rat
Experimental: Mean of 10 readings was recorded.
Drugs were formulated fresh for each administration.

[2] = Ex vivo bioassay of blood concentration after oral administration (fibroblast collagenase / 14C collagen read-out); set-up: species or system male Lewis rats; conditions: 10mg/kg oral, suspension in PBS/Tween, with versus without CyA (0.3mg/kg); 0.5 to 24 hrs, n=6
Experimental: Compound 1(10mg/kg)±CyA (0.3mg/kg) [in PBS/0.01% Tween 80™] was administered to healthy male Lewis rats (as above). Blood samples (0.5ml into a syringe containing 0.1 ml acid citrate dextroset as anticoagulant) were removed from the ventro-lateral tail vein of the halothane anaestetised rat at t= prebleed, 0.5, 1, 2, 6 and 24 hrs. 3mls methanol was added to each blood sample, mixed and centrifuged at 3000 r.p.m. for 15 minutes (using Beckman GPKR centrifuge). 2.0ml of the methanol supematant was removed and evaporated dry. The pellet was redisolved in 200µl DMSO (dimethylsulphoxide). An aliquot of the solubilised pellet was assayed against fibroblast collagenase using ^14C collagen as substrate, as follows: 15µl fibroblast collagenase at suitable dilution. 100µl collagenase assay buffer* 10µl solubilised pellet 75µl ddH2O 100µl ^14C collagen † Acid citrate dextrose, pH4.5 (13.65g citric acid, 25g tri-sodium citrate & 20g d-glucose per litre of water) * (50mM Tris (pH 7.4), 5mM CaCl2, 0.05% Brij, 0.02% NaN3)
Samples were incubated overnight at 37°C and undigested substrate removed by centrifugation at 11,600 r.p.m. for 15 mins (using Heraeus Biofuge 15). […]
A calibration curve for the test compound of interest was run alongside the blood samples. The concentration of the test compound in the blood was then calculated from the calibration curve.

[3] = Twentyman 1992; cited from earlier work

C=CC[C@H](C(=O)NO)[C@@H](CC(C)C)C(=O)N[C@H](C(=O)NC)C(C)(C)C [Compound 1, 3R-(2,2-Dimethyl-1S-methylcarbamoyl-propylcarbamoyl)-5-methyl-2S-2-propenyl-hexanohydroxamic acid]
reducing the paw volume (swelling) ([1]; Compound 1 at doses at or below 10mg/kg, po, bid (data not shown)): ineffective
effect on arthritis ([1]; given alone, po, bid: Compound 1 (10mg/ml), Cyclosporin A (0.3mg/ml)): very little or no effect
blood concentration of Compound 1 [2]: equivalent

CNC(=O)[C@H](Cc1ccccc1)NC(=O)[C@H](CC(C)C)[C@H](CSc1cccs1)C(=O)NO [Compound 2, [4-(N-Hydroxyamino)-2R-isobutyl-3S-(thiophenylthiomethyl)succinyl]-L-phenylalanine-N-methylamide]
synergy with cyclosporin A ([1]; Compound 2 at 5mg/kg ip, bid, with cyclosporin A at 0.3mg/kg ip): act in synergy

C/C=C/C[C@@H](C)C(=O)[C@H]1C(=O)N[C@@H](C(C)C)C(=O)N(C)CC(=O)N(C)[C@@H](CC(C)C)C(=O)N[C@@H](C(C)C)C(=O)N(C)[C@@H](CC(C)C)C(=O)N[C@@H](C)C(=O)N[C@H](C)C(=O)N(C)[C@@H](CC(C)C)C(=O)N(C)[C@@H](CC(C)C)C(=O)N(C)[C@@H](C(C)C)C(=O)N1C [PSC-833]
potency relative to CyA [3]: approximately 10 fold

Source: patent EP0936918B1, “COMBINATION THERAPY FOR TREATMENT OF ARTHRITIC DISEASES” (BRITISH BIOTECH PHARMACEUTICALS LIMITED, priority 1996, dated 1998)
